Data as given in patent US20220040212A1, “ORAL REHYDRATION COMPOSITION WITH OLIGOSACCHARIDES” (ABBOTT LABORATORIES, priority 2013, published 2022).
Several values for one entry are separate records, joined by “and”; a condition that tells them apart may be missing. Equal values may be shown once. Values belong to the molecule of their own block, whether it stands above or below them.

How the values were obtained:
[1] = Stability of 2′-FL, LNnT and 6′-SL in an ORC over time (0 D to 14 weeks); type: physicochemical; conditions: for % Remaining * (LNnT) / % Remaining * (6′-SL): vs target fortification; for Change of oligosaccharide level over the course of the study (in words): 0 D to 14 weeks
Method: Another study was performed to determine the stability of 2′-FL, LNnT, and 6′-SL in an ORC over time (e.g., 1 week, 3 weeks, 6 weeks, and 14 weeks).
Sample Preparation: A master batch with a pH of 4.25 is sub-divided. The oligosaccharides are added to the respective ORC in an amount of 0.2 g/L for 2′-FL and 6′-SL, LNnT was fortified in an amount of 0.256 g/L. The pH was then adjusted from 4.25 to 3.5 by addition of citric acid. Prior to sterilization, samples are collected to evaluate oligosaccharide levels. The formulas were then delivered into 1 L bottles and subjected to heat sterilization and allowed to cool to room temperature.
The data on day 0 was collected in duplicate for samples prior to sterilization (unsterile) and after sterilization (sterile), thereafter the data was collected only on the sterilized samples. […] The slight fluctuation in lactose and lactulose levels are likely due to method variability.
The data on day 0 was collected in duplicate for samples prior to sterilization (unsterile) and after sterilization (sterile), thereafter the data was collected only on the sterilized samples.
The data on day 0 was collected in duplicate for samples prior to sterilization (unsterile) and after sterilization (sterile), thereafter the data was collected only on the sterilized samples. […] At 14 weeks, the concentration was 2.3% of the target fortification amount.

[2] = Stability of oligosaccharides in oral rehydration solution, before/after retort sterilization and 3 weeks after (HPAEC); type: physicochemical; conditions: for LNnT / Lactose / % Theoretical LNnT / 6′-SL / Sialic acid / % Theoretical 6′-SL: pH 3.5; for % Theoretical LNnT: fortification 0.256 g/L; for Further loss 3-weeks after sterilization, relative to sterilized sample (in words) / Loss of oligosaccharide during sterilization (in words): oral rehydration solution pH 3.5; for Loss of oligosaccharide during sterilization (in words): retort 217° F. 25 min; for % Theoretical 6′-SL: fortification 0.2 g/L
Method: A study was conducted to determine the relative stabilities of GOS, FOS, 2′-FL, 6′-SL, and LNnT in an oral rehydration solution. A master batch of product was prepared (shown in Table 1), the pH adjusted to approx. 4.25, and subsequently divided into five sub-batches.
Oligosaccharide ingredients were added to each of the sub-batches in amounts shown Table 2, and the pH of each sub-batch was subsequently adjusted to 3.5 with citric acid. The solutions were filled into 1 L plastic bottles, capped and retorted with a cook temperature of 217° F. for 25 minutes. Duplicate samples were collected immediately prior to sterilization and within 24 h after sterilization. Prior to sample analysis, the unsterile samples were stored at refrigerated temperature (˜40° F.) and the sterilized samples were held ambient temperature.
Samples were analyzed by HPAEC using a Dionex ICS3000 Ion Chromatography System (Thermo Scientific, Inc., Sunnyvale, Calif.) equipped with a pulsed amperometric detector comprised of a AgCl reference electrode, gold working electrode, and CarboPac PA1 guard (4×50 mm) and analytical columns (4×250 mm). Mobile phases were degassed and pressurized with 3 to 5 psi helium, and oligosaccharides eluted from the columns using various gradients detailed in Tables 3-5 at a flow rate of 1.0 mL/min. The column and detector were held at 20±2° C. Oligosaccharide identification and concentration were determined from quadratic fit (not forced through the origin) standard curves. […]
2′-FL fortification was calculated to be 0.2 g/L. Testing samples were reconstituted at 20 mL to 100 ml, with water, and then filtered using a 0.2 μm PES membrane syringe filter.
LNnT fortification was calculated to be 0.256 g/L. Testing samples were reconstituted at 20 mL to 100 ml, with water, and then filtered using a 0.2 μm PES membrane syringe filter.
6′-SL fortification was calculated to be 0.2 g/L. Testing samples were reconstituted at 20 mL to 100 mL with water, and then filtered using a 0.2 μm PES membrane syringe filter.

[3] = LNnT ORC pH 3.5, 0 D, sterile, average
[4] = LNnT ORC pH 3.5, 0 D, sterile, samples 1, 2
[5] = LNnT ORC pH 3.5, 0 D, unsterile, average
[6] = LNnT ORC pH 3.5, 0 D, unsterile, samples 1, 2
[7] = LNnT ORC pH 3.5, 3 WK, sterile, average
[8] = LNnT ORC pH 3.5, 3 WK, sterile, samples 1, 2
[9] = LNnT ORC pH 3.5, 6 WK, sterile, average
[10] = LNnT ORC pH 3.5, 6 WK, sterile, samples 1, 2
[11] = LNnT ORC pH 3.5, 14 WK, sterile, average
[12] = LNnT ORC pH 3.5, 14 WK, sterile, samples 1, 2
[13] = LNnT sample, 3-week after sterilization, average
[14] = LNnT sample, 3-week after sterilization, samples 1, 2
[15] = LNnT sample, sterile (after retort 217° F. 25 min), samples 1, 2
[16] = LNnT sample, sterile (after retort), average
[17] = LNnT sample, unsterile, average
[18] = LNnT sample, unsterile, samples 1, 2
[19] = 6′-SL ORC pH 3.5, 0 D, sterile, average
[20] = 6′-SL ORC pH 3.5, 0 D, sterile, samples 1, 2
[21] = 6′-SL ORC pH 3.5, 0 D, unsterile, average
[22] = 6′-SL ORC pH 3.5, 0 D, unsterile, samples 1, 2
[23] = 6′-SL ORC pH 3.5, 3 WK, sterile, average
[24] = 6′-SL ORC pH 3.5, 3 WK, sterile, samples 1, 2
[25] = 6′-SL ORC pH 3.5, 6 WK, sterile, average
[26] = 6′-SL ORC pH 3.5, 6 WK, sterile, samples 1, 2
[27] = 6′-SL ORC pH 3.5, 14 WK, sterile, average
[28] = 6′-SL ORC pH 3.5, 14 WK, sterile, samples 1, 2
[29] = 6′-SL sample, 3-week after sterilization, average
[30] = 6′-SL sample, 3-week after sterilization, samples 1, 2
[31] = 6′-SL sample, sterile (after retort 217° F. 25 min), samples 1, 2
[32] = 6′-SL sample, sterile (after retort), average
[33] = 6′-SL sample, unsterile, average
[34] = 6′-SL sample, unsterile, samples 1, 2

LNnT [1, 3]: 261 mg/L
Lactose [1, 3]: 26.8 mg/L
% Remaining * (LNnT) [1, 3]: 102%
LNnT [1, 4]: 261 mg/L and 261.1 mg/L
Lactose [1, 4]: 26.34 mg/L and 27.26 mg/L
% Remaining * (LNnT) [1, 4]: 102.1%
LNnT [1, 5]: 258 mg/L
Lactose [1, 5]: 25.6 mg/L
% Remaining * (LNnT) [1, 5]: 101%
LNnT [1, 6]: 257.6 mg/L and 259.4 mg/L
Lactose [1, 6]: 25.78 mg/L and 25.46 mg/L
% Remaining * (LNnT) [1, 6]: 100.7% and 101.4%
% Remaining ** (LNnT) [1, 7]: 105%
LNnT [1, 7]: 269 mg/L
Lactose [1, 7]: 28.10 mg/L
% Remaining ** (LNnT) [1, 8]: 104.2% and 106%
LNnT [1, 8]: 266.5 mg/L and 271.0 mg/L
Lactose [1, 8]: 28.03 mg/L and 28.19 mg/L
% Remaining ** (LNnT) [1, 9]: 104%
LNnT [1, 9]: 267 mg/L
Lactose [1, 9]: 29.7 mg/L
% Remaining ** (LNnT) [1, 10]: 103.9% and 104.9%
LNnT [1, 10]: 265.8 mg/L and 268.4 mg/L
Lactose [1, 10]: 30.89 mg/L and 28.6 mg/L
% Remaining ** (LNnT) [1, 11]: 105%
LNnT [1, 11]: 269 mg/L
Lactose [1, 11]: 28 mg/L
% Remaining ** (LNnT) [1, 12]: 106.6% and 103.4%
LNnT [1, 12]: 272.7 mg/L and 264.3 mg/L
Lactose [1, 12]: 27.94 mg/L and 28.14 mg/L
Change of oligosaccharide level over the course of the study (in words) ([1]; ORC pH 3.5, heat sterilized): No substantial loss
Stability in the exemplary formulations (in words) [2]: enhanced stability
LNnT [2, 13]: 269 mg/L
Lactose [2, 13]: 28.1 mg/L
% Theoretical LNnT [2, 13]: 105%
LNnT [2, 14]: 266.5 mg/L and 271.0 mg/L
Lactose [2, 14]: 28.03 mg/L and 28.19 mg/L
% Theoretical LNnT [2, 14]: 104.2% and 106%
LNnT [2, 15]: 261 mg/L and 261.1 mg/L
Lactose [2, 15]: 26.34 mg/L and 27.26 mg/L
LNnT [2, 16]: 261 mg/L
Lactose [2, 16]: 26.8 mg/L
% Theoretical LNnT [2, 16]: 102%
% Theoretical LNnT ([2]; LNnT sample, sterile (after retort), samples 1, 2): 102.1%
LNnT [2, 17]: 258 mg/L
Lactose [2, 17]: 25.6 mg/L
% Theoretical LNnT [2, 17]: 101%
LNnT [2, 18]: 257.6 mg/L and 259.4 mg/L
Lactose [2, 18]: 25.78 mg/L and 25.46 mg/L
% Theoretical LNnT [2, 18]: 100.7% and 101.4%
Further loss 3-weeks after sterilization, relative to sterilized sample (in words) [2]: no further loss
Loss of oligosaccharide during sterilization (in words) [2]: no decrease
SMILES: CC(=O)N[C@H]1[C@H](O[C@H]2[C@@H](O)[C@@H](CO)O[C@@H](O[C@H]3[C@H](O)[C@@H](O)C(O)O[C@@H]3CO)[C@@H]2O)O[C@H](CO)[C@@H](O[C@@H]2O[C@H](CO)[C@H](O)[C@H](O)[C@H]2O)[C@@H]1O (mixture of isomers) [LNnT, lacto-N-neotetraose]

6′-SL [1, 19]: 10.7 mg/L
Lactose [1, 19]: 149 mg/L
Sialic acid [1, 19]: 83.6 mg/L
% Remaining * (6′-SL) [1, 19]: 5.35%
6′-SL [1, 20]: 10.39 mg/L and 11 mg/L
Lactose [1, 20]: 149.4 mg/L
Sialic acid [1, 20]: 83.46 mg/L and 83.79 mg/L
% Remaining * (6′-SL) [1, 20]: 5.195% and 5.502%
6′-SL [1, 21]: 173 mg/L
Lactose [1, 21]: 24.6 mg/L
Sialic acid [1, 21]: 4.95 mg/L
% Remaining * (6′-SL) [1, 21]: 86.3%
6′-SL [1, 22]: 170.8 mg/L and 174.5 mg/L
Lactose [1, 22]: 24.22 mg/L and 24.9 mg/L
Sialic acid [1, 22]: 5.055 mg/L and 4.842 mg/L
% Remaining * (6′-SL) [1, 22]: 85.42% and 87.24%
6′-SL [1, 23]: 10.5 mg/L
% Remaining ** (6′-SL) [1, 23]: 5.27%
Lactose [1, 23]: 153 mg/L
Sialic acid [1, 23]: 82.9 mg/L
6′-SL [1, 24]: 10.5 mg/L and 10.6 mg/L
% Remaining ** (6′-SL) [1, 24]: 5.249% and 5.3%
Lactose [1, 24]: 152.2 mg/L and 154.0 mg/L
Sialic acid [1, 24]: 82.89 mg/L and 82.96 mg/L
6′-SL [1, 25]: 10.5 mg/L
% Remaining ** (6′-SL) [1, 25]: 5.26%
Lactose [1, 25]: 172 mg/L
Sialic acid [1, 25]: 98 mg/L
6′-SL [1, 26]: 10.47 mg/L and 10.59 mg/L
% Remaining ** (6′-SL) [1, 26]: 5.234% and 5.295%
Lactose [1, 26]: 170.5 mg/L and 174.4 mg/L
Sialic acid [1, 26]: 98.77 mg/L and 97.2 mg/L
6′-SL [1, 27]: 4.6 mg/L
% Remaining ** (6′-SL) [1, 27]: 2.31%
Lactose [1, 27]: 152 mg/L
Sialic acid [1, 27]: 91.7 mg/L
6′-SL [1, 28]: 4.66 mg/L and 4.57 mg/L
% Remaining ** (6′-SL) [1, 28]: 2.330% and 2.285%
Lactose [1, 28]: 149.5 mg/L and 155.1 mg/L
Sialic acid [1, 28]: 91.10 mg/L and 92.22 mg/L
Concentration as % of the target fortification amount ([1]; 6′-SL ORC pH 3.5, at 14 weeks): 2.3%
Discoloration relative to the other test compositions ([1]; ORC pH 3.5, heat sterilized): Slight discoloration
Change of oligosaccharide level over the course of the study (in words) ([1]; ORC pH 3.5, heat sterilized): significant decrease
6′-SL [2, 29]: 10.5 mg/L
Lactose [2, 29]: 153 mg/L
Sialic acid [2, 29]: 82.9 mg/L
% Theoretical 6′-SL [2, 29]: 5.27%
6′-SL [2, 30]: 10.5 mg/L and 10.6 mg/L
Lactose [2, 30]: 152.2 mg/L and 154 mg/L
Sialic acid [2, 30]: 82.89 mg/L and 82.96 mg/L
% Theoretical 6′-SL [2, 30]: 5.249% and 5.3%
6′-SL [2, 31]: 10.39 mg/L and 11.0 mg/L
Lactose [2, 31]: 149.4 mg/L
Sialic acid [2, 31]: 83.46 mg/L and 83.79 mg/L
6′-SL [2, 32]: 10.7 mg/L
Lactose [2, 32]: 149 mg/L
Sialic acid [2, 32]: 83.6 mg/L
6′-SL [2, 33]: 173 mg/L
Lactose [2, 33]: 24.6 mg/L
Sialic acid [2, 33]: 4.95 mg/L
6′-SL [2, 34]: 170.8 mg/L and 174.5 mg/L
Lactose [2, 34]: 24.22 mg/L and 24.90 mg/L
Sialic acid [2, 34]: 5.055 mg/L and 4.842 mg/L
Further loss 3-weeks after sterilization, relative to sterilized sample (in words) [2]: No additional loss
Loss of oligosaccharide during sterilization (in words) [2]: Significant loss
SMILES: CC(=O)N[C@H]1[C@H]([C@H](O)[C@H](O)CO)O[C@@](OC[C@H]2O[C@@H](O[C@H]3[C@H](O)[C@@H](O)[C@H](O)O[C@@H]3CO)[C@H](O)[C@@H](O)[C@H]2O)(C(=O)O)C[C@@H]1O [6′-SL, 6′-sialyllactose]
